Laboratory results taken from US20130030017A1, “QUINOLINE DERIVATIVES AS ANTIBACTERIAL AGENTS” (priority 2005, published 2013).
Converted amounts (≈) assume the structure as drawn.

Assays:
Assay type in all cases: cell-based
[1] = test system: Staphylococcus aureus (ATCC29213); experiment: Microtitre plate assay, IC90 determination (STA 29213); conditions: 90% inhibitory concentration for bacterial growth, 37° C., resazurin fluorescence; for IC90 STA 29213: 24 hours; for IC90: Staphylococcus aureus, ATCC29213, 24 h
Experimental: (§1) The bacteria used in this study were grown overnight in flasks containing 100 ml Mueller-Hinton Broth (Becton Dickinson—cat. no. 275730) in sterile de-ionized water, with shaking, at 37° C. Stocks (0.5 ml/tube) were stored at −70° C. until use. Bacteria titrations were performed in microtiter plates and colony forming units (CFUs) were determined. In general, an inoculum level of approximately 100 CFUs was used for susceptibility testing.
(§2) Flat-bottom, sterile 96-well plastic microtiter plates were filled with 180 μl of sterile deionized water, supplemented with 0.25% BSA. Subsequently, stock solutions (7.8× final test concentration) of compounds were added in 45 μl volumes in column 2 Serial five-fold dilutions (45 μl in 180 μl) were made directly in the microtiter plates from column 2 to reach column 11. Untreated control samples with (column 1) and without (column 12) inoculum were included in each microtiter plate. Depending on the bacteria type, approximately 10 to 60 CFU per well of bacteria inoculum (100 TCID50), in a volume of 100 μl in 2.8× Mueller-Hinton broth medium, was added to the rows A to H, except column 12. The same volume of broth medium without inoculum was added to column 12 in row A to H. The cultures were incubated at 37° C. for 24 hours under a normal atmosphere (incubator with open air valve and continuous ventilation). At the end of incubation, one day after inoculation, the bacterial growth was quantitated fluorometrically. Therefore resazurin (0.6 mg/ml) was added in a volume of 20 μl to all wells 3 hours after inoculation, and the plates were re-incubated overnight. A change in colour from blue to pink indicated the growth of bacteria. The fluorescence was read in a computer-controlled fluorometer (Cytofluor Biosearch) at an excitation wavelength of 530 nm and an emission wavelength of 590 nm. The % growth inhibition achieved by the compounds was calculated according to standard methods. The IC90 (expressed in μg/ml) was defined as the 90% inhibitory concentration for bacterial growth.

[2] = test system: Streptococcus pneumoniae (ATCC6305); experiment: Microtitre plate assay, IC90 determination (SPN 6305); conditions: 90% inhibitory concentration for bacterial growth, 37° C., resazurin fluorescence; for IC90 SPN 6305: 24 hours; for IC90: Streptococcus pneumoniae, ATCC6305, 24 h
Experimental: as §1, §2

[3] = test system: Enterococcus faecalis (ATCC29212); experiment: Microtitre plate assay, IC90 determination (EFA 29212); conditions: 90% inhibitory concentration for bacterial growth, 37° C., resazurin fluorescence; for IC90 EFA 29212: 24 hours; for IC90: Enterococcus faecalis, ATCC29212, 24 h
Experimental: as §1, §2

[4] = test system: Pseudomonas aeruginosa (ATCC27853); experiment: Microtitre plate assay, IC90 determination (PAE 27853); conditions: 90% inhibitory concentration for bacterial growth, 37° C., resazurin fluorescence; for IC90 PAE 27853: 24 hours; for IC90: Pseudomonas aeruginosa, ATCC27853, 24 h
Experimental: as §1, §2

[5] = test system: Streptococcus pyogens (ATCC8668); experiment: Microtitre plate assay, IC90 determination (SPY 8668); conditions: 90% inhibitory concentration for bacterial growth, 37° C., resazurin fluorescence; for IC90 SPY 8668: 24 hours; for IC90: Streptococcus, ATCC8668, 24 h
Experimental: as §1, §2

SMILES	IC90 STA 29213 [1] [µg/mL]	IC90 SPN 6305 [2] [µg/mL]	IC90 EFA 29212 [3] [µg/mL]	IC90 PAE 27853 [4] [µg/mL]	IC90 SPY 8668 [5] [µg/mL]	IC90 [1] [µg/mL]	IC90 [3] [µg/mL]	IC90 [5] [µg/mL]	IC90 [2] [µg/mL]	IC90 [4] [µg/mL]
CCOCCOCCOc1nc2ccc(Br)cc2cc1C(c1ccccc1)C(O)(CCc1ccccc1)CCN(C)C (centres unmarked) [Compound 44]	22.6 (≈ 35.6 µM)	4.5 (≈ 7.08 µM)	10.1 (≈ 15.9 µM)	4.5 (≈ 7.08 µM)	8.0 (≈ 12.6 µM)					
COc1nc2ccc(Br)cc2cc1C(c1cccc(Cl)c1)C(O)(CCc1ccccc1)CCN(C)C (centres unmarked) [Compound 67]	2.3 (≈ 4.05 µM)	2.3 (≈ 4.05 µM)	56.8 (≈ 100 µM)	56.8 (≈ 100 µM)	56.8 (≈ 100 µM)					
COc1nc2ccc(Br)cc2cc1C(c1cccc(Cl)c1)C(O)(CCc1ccccc1)CCN(C)C (centres unmarked) [Compound 68]		0.7 (≈ 1.23 µM)		11.3 (≈ 19.9 µM)		2.3 (≈ 4.05 µM)	56.8 (≈ 100 µM)	56.8 (≈ 100 µM)		
COc1nc2ccc(Br)cc2cc1C(c1cccc(C)c1)C(O)(CCc1ccccc1)CCN(C)C (centres unmarked) [Compound 71]						2.2 (≈ 4.02 µM)	54.8 (≈ 100 µM)	43.5 (≈ 79.4 µM)	1.7 (≈ 3.1 µM)	54.8 (≈ 100 µM)
COc1nc2ccc(Br)cc2cc1C(c1cccc(C)c1)C(O)(CCc1ccccc1)CCN(C)C (centres unmarked) [Compound 72]	1.7 (≈ 3.1 µM)	2.2 (≈ 4.02 µM)	43.5 (≈ 79.4 µM)	43.5 (≈ 79.4 µM)	43.5 (≈ 79.4 µM)					
COc1ccc(C(c2cc3cc(Br)ccc3nc2OC)C(O)(CCc2ccccc2)CCN(C)C)cc1 (centres unmarked) [Compound 73]	7.1 (≈ 12.6 µM)		8.9 (≈ 15.8 µM)	8.0 (≈ 14.2 µM)	4.0 (≈ 7.1 µM)				1.8 (≈ 3.19 µM)	
COc1nc2ccc(Br)cc2cc1C(c1ccc(Cl)cc1)C(O)(CCc1cccc(F)c1)CCN(C)C (centres unmarked) [Compound 77]	1.9 (≈ 3.24 µM)		3.7 (≈ 6.31 µM)					1.9 (≈ 3.24 µM)	0.8 (≈ 1.37 µM)	1.9 (≈ 3.24 µM)
COc1nc2ccc(Br)cc2cc1C(c1ccc(Cl)cc1)C(O)(CCc1cccc(F)c1)CCN(C)C (centres unmarked) [Compound 78]	7.4 (≈ 12.6 µM)	1.5 (≈ 2.56 µM)	9.3 (≈ 15.9 µM)	1.9 (≈ 3.24 µM)	1.9 (≈ 3.24 µM)					
COc1nc2ccc(Br)cc2cc1C(c1ccc(Cl)cc1)C(O)(CCc1ccc(F)cc1)CCN(C)C (centres unmarked) [Compound 79]						9.3 (≈ 15.9 µM)	58.6 (≈ 100 µM)	46.5 (≈ 79.4 µM)	2.3 (≈ 3.93 µM)	46.5 (≈ 79.4 µM)
COc1nc2ccc(Br)cc2cc1C(c1cccc(Cl)c1)C(O)(CCc1ccc(F)cc1)CCN(C)C (centres unmarked) [Compound 80]	9.3 (≈ 15.9 µM)	1.9 (≈ 3.24 µM)	8.3 (≈ 14.2 µM)	1.9 (≈ 3.24 µM)	3.3 (≈ 5.63 µM)					
COc1nc2ccc(Br)cc2cc1C(c1cccc(Cl)c1)C(O)(CCc1ccc(F)cc1)CCN(C)C (centres unmarked) [Compound 81]	1.9 (≈ 3.24 µM)	0.6 (≈ 1.02 µM)					9.3 (≈ 15.9 µM)	1.9 (≈ 3.24 µM)		1.9 (≈ 3.24 µM)
COc1nc2ccc(Br)cc2cc1C(c1cccc(C)c1)C(O)(CCc1ccc(F)cc1)CCN(C)C (centres unmarked) [Compound 82]	1.8 (≈ 3.18 µM)	2.3 (≈ 4.07 µM)	1.8 (≈ 3.18 µM)	1.8 (≈ 3.18 µM)	1.8 (≈ 3.18 µM)					
COc1nc2ccc(Br)cc2cc1C(c1cccc(C)c1)C(O)(CCc1ccc(F)cc1)CCN(C)C (centres unmarked) [Compound 83]		0.5 (≈ 0.884 µM)	9.0 (≈ 15.9 µM)	4.0 (≈ 7.07 µM)		1.8 (≈ 3.18 µM)		1.8 (≈ 3.18 µM)		
COc1ccc(C(c2cc3cc(Br)ccc3nc2OC)C(O)(CCc2ccc(F)cc2)CCN(C)C)cc1 (centres unmarked) [Compound 84]						4.6 (≈ 7.91 µM)	58.2 (≈ 100 µM)	46.2 (≈ 79.4 µM)	2.1 (≈ 3.61 µM)	46.2 (≈ 79.4 µM)
COc1nc2ccc(Br)cc2cc1C(c1ccc(Cl)cc1)C(O)(CCc1ccc(C)cc1)CCN(C)C (centres unmarked) [Compound 87]	9.2 (≈ 15.8 µM)	2.3 (≈ 3.95 µM)					11.6 (≈ 19.9 µM)	5.2 (≈ 8.93 µM)		9.2 (≈ 15.8 µM)
COc1ccccc1CCC(O)(CCN(C)C)C(c1ccc(Cl)cc1)c1cc2cc(Br)ccc2nc1OC (centres unmarked) [Compound 88]						9.5 (≈ 15.9 µM)	37.7 (≈ 63 µM)	1.9 (≈ 3.18 µM)	0.5 (≈ 0.836 µM)	2.1 (≈ 3.51 µM)
